What was measured:
[1] = biological target: T1, TMPRSS2 (Homo sapiens, UniProt O15393); assay: fluorometric enzyme inhibition assay, TMPRSS2 (Boc-Gln-Ala-Arg-AMC); assay type: biochemical; settings: for Ki: from IC50 by Cheng-Prusoff, n.a. = not active, <80% inhibition at 20 µM
T1 construct: purchased Cusabio
Protocol: (§1) The inhibitory activity of the synthesized compounds towards the respective main- and off-target proteases was measured via fluorometric and colorimetric assays. Thus, fluorogenic AMC- or colorimetric pNA-based substrates with a peptide sequence suitable for the tested protease were utilized (see Supplementary Figure S2). At first, the compounds were screened against […] proteases (uPA, TMPRSS2, matriptase, tPA, thrombin, factor Xa) at 20 µM, and a cut-off value of 80% inhibition at this concentration was set, for the differentiation between nonactive (n.a.) and active inhibitors. Due to the reversible inhibition mechanism of the ketobenzothiazole derivates, the IC50 values were determined with Graphpad Prism 9, and afterwards converted to the corresponding Ki values for an adequate comparison between the inhibitory activities of the compounds toward all tested proteases. The Ki values were calculated using the Cheng–Prusoff equation [43].
(§2) Fluorometric inhibition assays
(§3) The inhibitory activities of the compounds against the proteases were determined by enzyme inhibition assays with fluorogenic or colorimetry-based substrates. The fluorescence, caused by cleaved AMC from the fluorogenic substrates (uPA, matriptase, TMPRSS2, thrombin), was measured in white flat-bottom 96-well plates from Greiner Bio-One using a Tecan Infinite F200 Pro plate reader. The absorption, caused by cleaved pNA from colorimetric substrates (factor Xa and tPA), was measured in transparent flat-bottom 96-well plates from Greiner Bio-One using a Tecan Spark 10M plate reader. All measurements with the main-target proteases (uPA and TMRPSS2) were performed as triplicates and with the off-target proteases (matriptase, factor Xa, tPA, thrombin) as duplicates. The substrates and the compounds were prepared as stock solutions in DMSO. Each well contained a total volume of 200 µL, consisting of 185 µL buffer, 5 µL inhibitor in DMSO or pure DMSO as negative control, 5 µL substrate in DMSO and 5 µL enzyme solution in buffer. Dilution series were prepared for the determination of the inhibition constants. The fluorescence signal and absorbance were measured every 30 s for 10 min at 25 or 37 °C with the corresponding excitation/emission (λex = 380 nm / λem = 460 nm) and absorbance (λabs = 405 nm) wavelengths, depending on the targeted protease. IC50 values for the reversible inhibitors were calculated with Graphpad Prism 9 by fitting the remaining enzymatic activity to the four parameter IC50 equation with Y [%] as the residual enzyme activity , Ymax as the maximum value of the dose response curve at inhibitor concentrations [I] = 0 µM, Ymin as the minimum value at high inhibitor concentrations and s as the hill coefficient.[1] The fluorescence progress curves and sigmoidal dose-response curve for inhibition of uPa by compound 38 is shown exemplary in Figure S2. […]
(§4) Due to the dependence of the IC50 value on the substrate affinity and concentration, the Ki values were calculated with the Cheng-Prusoff equation, using the final substrate concentration [S] and the Michaelis-Menten constant KM, (2) for appropriate comparison of the inhibitory activities to the other enzymes and inhibitors.[1]
(§5) KM values were determined by fitting to the Michaelis-Menten equation using Graphpad Prism 9 with v [ΔF/min] as the substrate hydrolysis rate, vmax as the maximum slope of the dose-response curve, and the substrate [S] concentration.[1] The different substrates were serially diluted in DMSO. The measurement was done in analogy to the determination of the inhibitory activity, but with 5 µL pure DMSO instead of inhibitor solution. […]
(§6) The following buffers and substrates were used for the respective assays: uPA (50 mM Tris HCl pH = 7.9, 150 mM […]
(§7) TMPRSS2 (25 mM Tris HCl pH = 8.0, 150 mM NaCl, 5 mM CaCl2, 0.001% TX-100, 100 µM Boc-Gln-Ala-Arg-AMC (KM: 68.63 ± 6.64 µM), 25 °C, 3 nM TMPRSS2)[3]; matriptase (50 mM Tris HCl pH = 8.0, 150 mM NaCl, 5 mM CaCl2, […]

[2] = Parallel Artificial Membrane Permeation Assay (PAMPA); assay type: in vitro ADME; settings: TRIS 50 mM pH 7.4, 5% DMSO, 7 h at room temperature
Description: Following the envisioned applications of the presented inhibitors as drug leads for the treatment of cancer or viral infections, cell permeability is an important factor in the characterization process. […] However, in the organismic contexts of oral bioavailability (facilitated application) and biodistribution (reaching target tissue), adequate permeation is an important quality. To assess this characteristic, PAMPA was used as a suitable model for passive permeation.
Figure S5: Stability analyses of a representative set of inhibitors. The depictions consist of compound structure and number, then analysis at t0, then analysis after 7 h at room temperature, then analysis after 12 h at 37 °C. […]
Incubation setup was assembled and left for 7 h at room temperature. Reference solutions were prepared by simply mixing the indicated volumes of donor and acceptor solutions at the start of the incubation period and analyzed later with the acceptor solutions. […]
Measurement setup for spectroscopy consisted of UV-transparent measurement plate (Greiner UV-Star®, 655801), Tecan Spark 10M® well plate reader, 200 µL sample volume, λ = 200–650 nm. […]
Measurement setup for LC/MS consisted of Agilent 1100 series HPLC system coupled to an Agilent 1100 series LC/MSD Trap with electron spray ionization (ESI). […] Retention time and mass spectrum recorded in positive ionization mode were used to assign species. […]

[3] = biological target: T2, factor Xa (Homo sapiens, UniProt P00742); assay: colorimetric enzyme inhibition assay, factor Xa (Z-D-Arg-Gly-Arg-pNA); assay type: biochemical; settings: from IC50 by Cheng-Prusoff; n.a. = not active, <80% inhibition at 20 µM
T2 construct: purchased Bio-techne
T2 sequence (P00742 235-488 limits assumed): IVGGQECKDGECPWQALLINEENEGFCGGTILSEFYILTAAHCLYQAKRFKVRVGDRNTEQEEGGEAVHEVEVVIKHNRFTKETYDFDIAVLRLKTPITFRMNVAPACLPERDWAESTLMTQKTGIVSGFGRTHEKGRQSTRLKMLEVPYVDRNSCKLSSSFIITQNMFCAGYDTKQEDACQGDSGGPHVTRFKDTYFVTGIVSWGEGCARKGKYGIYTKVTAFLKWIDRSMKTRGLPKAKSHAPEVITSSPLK
T2 sequence (P00742 41-179 partner limits assumed): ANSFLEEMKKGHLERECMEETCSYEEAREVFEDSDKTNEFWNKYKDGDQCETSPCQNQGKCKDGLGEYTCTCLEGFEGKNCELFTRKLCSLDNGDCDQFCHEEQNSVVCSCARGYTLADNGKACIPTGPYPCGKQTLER
Protocol: as §1, §2, §3, §4, §5, §6, §7

[4] = biological target: T3, thrombin (Homo sapiens, UniProt P00734); assay: fluorometric enzyme inhibition assay, thrombin (Z-Gly-Gly-Arg-AMC); assay type: biochemical; settings: from IC50 by Cheng-Prusoff; n.a. = not active, <80% inhibition at 20 µM
T3 construct: purchased Bio-techne
Protocol: as §1, §2, §3, §4, §5, §6, §7

T1 sequence (O15393 whole entry): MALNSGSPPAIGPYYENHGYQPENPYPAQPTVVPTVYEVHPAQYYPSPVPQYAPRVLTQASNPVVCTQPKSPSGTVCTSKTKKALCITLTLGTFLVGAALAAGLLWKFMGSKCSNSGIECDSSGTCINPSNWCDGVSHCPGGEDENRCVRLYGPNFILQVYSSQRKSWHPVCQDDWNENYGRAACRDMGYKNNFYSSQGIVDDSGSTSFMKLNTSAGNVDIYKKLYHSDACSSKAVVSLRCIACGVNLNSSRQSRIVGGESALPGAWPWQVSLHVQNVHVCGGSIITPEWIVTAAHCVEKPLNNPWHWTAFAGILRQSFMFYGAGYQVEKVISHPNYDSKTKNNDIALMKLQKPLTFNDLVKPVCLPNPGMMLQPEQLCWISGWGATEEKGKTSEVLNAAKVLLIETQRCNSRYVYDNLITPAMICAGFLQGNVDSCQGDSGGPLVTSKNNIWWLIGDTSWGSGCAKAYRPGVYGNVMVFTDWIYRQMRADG

Row | SMILES | Ki [1] [nM] | PAMPA permeability Pe [2] | Ki Factor Xa [3] | Selectivity index [SI] TMPRSS2 ([1]; quotient Ki TMPRSS2 / Ki uPA) | Ki Thrombin [4] | Papp at 7 h ([2]; PAMPA, read-out: PAMPA permeability Pe) [×10⁻⁶ cm/s]
1 | CC(=O)N[C@@H](Cc1ccccc1)C(=O)N[C@@H](Cc1ccc(NC(=N)N)cc1)C(=O)c1nc2ccccc2s1 [Compound 33] | 5 ± 2 | not enough to exert measurable permeability |  |  |  | 
2 | CC(=O)NCC(=O)NC(C(=O)NC(C)C(=O)NC(CC1CCC(NC(=N)N)CC1)C(=O)c1nc2ccccc2s1)C(C)O (stereo not shown) [Compound 38] | 73 ± 16 |  | did not inhibit | 1.8 | did not inhibit | < 1
